Data on 19 molecules can be found in US20250361268A1, “NOVEL ANTI-INFLAMMATORY PEPTIDE AND USE THEREOF” (NOVACELL TECHNOLOGY INC., priority 2022, published 2025).

SMILES strings stand for the structures. Peptide text beside a SMILES is read from it. Bounds are passed on as bounds.

The target in experiment [1] is T1, FPR1 (Homo sapiens, UniProt P21462).
T1 sequence (P21462 1-350): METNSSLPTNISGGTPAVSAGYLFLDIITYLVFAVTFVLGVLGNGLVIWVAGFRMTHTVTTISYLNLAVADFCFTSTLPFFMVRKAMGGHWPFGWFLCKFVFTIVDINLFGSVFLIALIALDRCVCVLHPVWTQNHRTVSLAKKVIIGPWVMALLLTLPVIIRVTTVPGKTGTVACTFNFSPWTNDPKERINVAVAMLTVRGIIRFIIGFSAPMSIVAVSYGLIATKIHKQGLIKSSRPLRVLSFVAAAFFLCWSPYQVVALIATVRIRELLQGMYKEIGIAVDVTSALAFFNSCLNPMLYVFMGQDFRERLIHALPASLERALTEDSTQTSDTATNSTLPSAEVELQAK
Put plainly: Change in calcium activity by peptide, FPR1 activation effect. In kind it is cell-based. The following applies: calcium activity (Fura-2), graded per Table 3, read-out: EC50 for [Ca^2+] FPR1. The method, then: The day before measuring calcium activity, the cells were prepared at 3×10^5 cells per well in a 96-well flat clear bottom black plate (Costar, #3603). The prepared cells were treated with a Fura-2 QBT calcium kit (component A; Molecular Devices, #8197) at the same volume per well. After incubation at 37° C. for 1 hour, the cells were incubated in a dark room at room temperature for 30 minutes. After the Fura-2-treated cells, the prepared peptide, and a dedicated tip were placed at each section of FlexStation 3 Multi-Mode Microplate Reader (Molecular Devices, #Flex3), changes in calcium activity caused by the peptides were measured using SoftMax Pro 7 Software (Molecular Devices, #FLEX3-INSTALL-OS). […]

Experiment [2] concerns the target T2, FPR2 (Homo sapiens, UniProt P25090).
T2 construct: expressed in transfected cells; host or cells: RBL cells (RBL-FPR2)
T2 sequence (P25090 1-351): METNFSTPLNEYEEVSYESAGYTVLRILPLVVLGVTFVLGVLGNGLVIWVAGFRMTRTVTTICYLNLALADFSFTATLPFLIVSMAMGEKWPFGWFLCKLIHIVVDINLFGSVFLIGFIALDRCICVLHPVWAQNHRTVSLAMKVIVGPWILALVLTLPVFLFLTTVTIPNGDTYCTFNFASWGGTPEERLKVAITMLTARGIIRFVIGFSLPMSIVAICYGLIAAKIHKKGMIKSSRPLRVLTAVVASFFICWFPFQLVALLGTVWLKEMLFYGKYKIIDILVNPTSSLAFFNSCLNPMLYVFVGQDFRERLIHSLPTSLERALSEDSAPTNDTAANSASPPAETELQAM
Put plainly: Change in calcium activity by peptide (Fura-2) in RBL cells overexpressing FPR2. It counts as cell-based. The following applies: calcium activity (Fura-2), graded per Table 3, read-out: EC50 for [Ca^2+] FPR2. The method, then: The present inventors observed changes in calcium ion permeability to confirm whether the immunomodulatory peptide candidates prepared according to one example of the present invention activate the immune function of a living organism. Specifically, the concentration of calcium ions in cells was measured to confirm whether the peptides activate FPR2.
A peptide dissolved in water or 50% DMSO at a concentration of 0.5 mM was prepared by diluting it to an appropriate concentration in HBSS (Sigma, #55037C)+20 mM HEPES buffer.
In this experiment, the cells were cultured in DMEM (Lonza, #BE12-604F) containing 10% fetal bovine serum (FBS) and 1% penicillin-streptomycin under conditions of 37° C. and 5% CO2.
The day before measuring calcium activity, the cells were prepared at 3×10^5 cells per well in a 96-well flat clear bottom black plate (Costar, #3603). The prepared cells were treated with a Fura-2 QBT calcium kit (component A; Molecular Devices, #8197) at the same volume per well. After incubation at 37° C. for 1 hour, the cells were incubated in a dark room at room temperature for 30 minutes. After the Fura-2-treated cells, the prepared peptide, and a dedicated tip were placed at each section of FlexStation 3 Multi-Mode Microplate Reader (Molecular Devices, #Flex3), changes in calcium activity caused by the peptides were measured using SoftMax Pro 7 Software (Molecular Devices, #FLEX3-INSTALL-OS).

Turning to `CSCC[C@@H](NC(=O)[C@@H](NC(=O)[C@H](CCCCN)NC(=O)[C@H](Cc1ccc(O)cc1)NC(=O)[C@H](CCCNC(=N)N)NC(=O)[C@H](Cc1c[nH]c2ccccc12)NC(=O)[C@@H](N)CCCNC(=N)N)C(C)C)C(N)=O` [Peptide 1] (HELM PEPTIDE1{R.W.R.Y.K.V.[dM].[am]}$$$$V2.0), the EC50 in experiment [1] was more than 10000 nM; in experiment [2], less than 10 nM.
For `CCCCCCCC(=O)N[C@@H](CCCNC(=N)N)C(=O)N[C@@H](Cc1c[nH]c2ccccc12)C(=O)N[C@@H](CCCNC(=N)N)C(=O)N[C@@H](Cc1ccc(O)cc1)C(=O)N[C@@H](CCCCN)C(=O)N[C@H](C(=O)N[C@H](CCSC)C(N)=O)C(C)C` [Peptide 2] (HELM PEPTIDE1{[CCCCCCCC(=O)[*:2]].R.W.R.Y.K.V.[dM].[am]}$$$$V2.0) the same measures were 1000 to 10000 nM and 11 to 100 nM.
For `CSCC[C@@H](NC(=O)[C@@H](NC(=O)[C@H](CCCCN)NC(=O)[C@H](Cc1ccc(O)cc1)NC(=O)[C@H](CCCNC(=N)N)NC(=O)[C@@H](N)Cc1c[nH]c2ccccc12)C(C)C)C(N)=O` [Peptide 3] (HELM PEPTIDE1{W.R.Y.K.V.[dM].[am]}$$$$V2.0) the same measures were more than 10000 nM and less than 10 nM.
On the same counts, the results for `CSCC[C@@H](NC(=O)[C@@H](NC(=O)[C@H](CCCCN)NC(=O)[C@H](Cc1ccc(O)cc1)NC(=O)[C@H](CCCCN)NC(=O)[C@H](Cc1c[nH]c2ccccc12)NC(=O)[C@H](CCCCN)NC(C)=O)C(C)C)C(N)=O` [Peptide 4] (HELM PEPTIDE1{[ac].K.W.K.Y.K.V.[dM].[am]}$$$$V2.0) are more than 10000 nM and less than 10 nM.
Consider `CSCC[C@H](NC(=O)[C@@H](N)CCCNC(=N)N)C(=O)N[C@@H](CCCNC(=N)N)C(=O)N[C@@H](Cc1ccc(O)cc1)C(=O)N[C@@H](CCCCN)C(=O)N[C@H](C(=O)N[C@H](CCSC)C(N)=O)C(C)C` [Peptide 5] (HELM PEPTIDE1{R.M.R.Y.K.V.[dM].[am]}$$$$V2.0), for which the EC50 in experiment [1] was more than 10000 nM; in experiment [2], less than 10 nM.
Turning to `CCCC(=O)N[C@@H](CCCNC(=N)N)C(=O)N[C@@H](CCSC)C(=O)N[C@@H](CCCNC(=N)N)C(=O)N[C@@H](Cc1ccc(O)cc1)C(=O)N[C@@H](CCCCN)C(=O)N[C@H](C(=O)N[C@H](CCSC)C(N)=O)C(C)C` [Peptide 7] (HELM PEPTIDE1{[CCCC(=O)[*:2]].R.M.R.Y.K.V.[dM].[am]}$$$$V2.0), the results for the EC50 in experiment [1] and in experiment [2] were more than 10000 nM and less than 10 nM, respectively.
`CCCCCCCC(=O)N[C@@H](CCCNC(=N)N)C(=O)N[C@@H](CCSC)C(=O)N[C@@H](CCCNC(=N)N)C(=O)N[C@@H](Cc1ccc(O)cc1)C(=O)N[C@@H](CCCCN)C(=O)N[C@H](C(=O)N[C@H](CCSC)C(N)=O)C(C)C` [Peptide 8] (HELM PEPTIDE1{[CCCCCCCC(=O)[*:2]].R.M.R.Y.K.V.[dM].[am]}$$$$V2.0): the EC50 in experiment [1] was more than 10000 nM; in experiment [2], 11 to 100 nM.
On the same counts, the results for `CSCC[C@H](NC(=O)[C@@H](N)CCCCN)C(=O)N[C@@H](CCCCN)C(=O)N[C@@H](Cc1ccc(O)cc1)C(=O)N[C@@H](CCCCN)C(=O)N[C@H](C(=O)N[C@H](CCSC)C(N)=O)C(C)C` [Peptide 9] (HELM PEPTIDE1{K.M.K.Y.K.V.[dM].[am]}$$$$V2.0) are more than 10000 nM and 11 to 100 nM.
As for `CSCC[C@H](NC(=O)[C@H](CCCCN)NC(C)=O)C(=O)N[C@@H](CCCCN)C(=O)N[C@@H](Cc1ccc(O)cc1)C(=O)N[C@@H](CCCCN)C(=O)N[C@H](C(=O)N[C@H](CCSC)C(N)=O)C(C)C` [Peptide 10] (HELM PEPTIDE1{[ac].K.M.K.Y.K.V.[dM].[am]}$$$$V2.0), the values for the EC50 in experiment [1] and in experiment [2] were more than 10000 nM and 11 to 100 nM, respectively.
On the same counts, the results for `CCCC(=O)N[C@@H](CCCCN)C(=O)N[C@@H](CCSC)C(=O)N[C@@H](CCCCN)C(=O)N[C@@H](Cc1ccc(O)cc1)C(=O)N[C@@H](CCCCN)C(=O)N[C@H](C(=O)N[C@H](CCSC)C(N)=O)C(C)C` [Peptide 11] (HELM PEPTIDE1{[CCCC(=O)[*:2]].K.M.K.Y.K.V.[dM].[am]}$$$$V2.0) are more than 10000 nM and less than 10 nM.
On the same counts, the results for `CCCCCCCC(=O)N[C@@H](CCCCN)C(=O)N[C@@H](CCSC)C(=O)N[C@@H](CCCCN)C(=O)N[C@@H](Cc1ccc(O)cc1)C(=O)N[C@@H](CCCCN)C(=O)N[C@H](C(=O)N[C@H](CCSC)C(N)=O)C(C)C` [Peptide 12] (HELM PEPTIDE1{[CCCCCCCC(=O)[*:2]].K.M.K.Y.K.V.[dM].[am]}$$$$V2.0) are more than 10000 nM and 11 to 100 nM.
For `CSCC[C@H](N)C(=O)N[C@@H](CCCNC(=N)N)C(=O)N[C@@H](Cc1ccc(O)cc1)C(=O)N[C@@H](CCCCN)C(=O)N[C@H](C(=O)N[C@H](CCSC)C(N)=O)C(C)C` [Peptide 13] (HELM PEPTIDE1{M.R.Y.K.V.[dM].[am]}$$$$V2.0) the same measures were more than 10000 nM and less than 10 nM.
As to `CSCC[C@H](NC(C)=O)C(=O)N[C@@H](CCCNC(=N)N)C(=O)N[C@@H](Cc1ccc(O)cc1)C(=O)N[C@@H](CCCCN)C(=O)N[C@H](C(=O)N[C@H](CCSC)C(N)=O)C(C)C` [Peptide 14] (HELM PEPTIDE1{[ac].M.R.Y.K.V.[dM].[am]}$$$$V2.0), the EC50 in experiment [1] was 1000 to 10000 nM; in experiment [2] it was less than 10 nM.
On the same counts, the results for `CCCC(=O)N[C@@H](CCSC)C(=O)N[C@@H](CCCNC(=N)N)C(=O)N[C@@H](Cc1ccc(O)cc1)C(=O)N[C@@H](CCCCN)C(=O)N[C@H](C(=O)N[C@H](CCSC)C(N)=O)C(C)C` [Peptide 15] (HELM PEPTIDE1{[CCCC(=O)[*:2]].M.R.Y.K.V.[dM].[am]}$$$$V2.0) are more than 10000 nM and less than 10 nM.
On the same counts, the results for `CCCCCCCC(=O)N[C@@H](CCSC)C(=O)N[C@@H](CCCNC(=N)N)C(=O)N[C@@H](Cc1ccc(O)cc1)C(=O)N[C@@H](CCCCN)C(=O)N[C@H](C(=O)N[C@H](CCSC)C(N)=O)C(C)C` [Peptide 16] (HELM PEPTIDE1{[CCCCCCCC(=O)[*:2]].M.R.Y.K.V.[dM].[am]}$$$$V2.0) are more than 10000 nM and 11 to 100 nM.
As for `CSCC[C@H](NC(=O)[C@@H](N)Cc1c[nH]cn1)C(=O)N[C@@H](CCCCN)C(=O)N[C@@H](Cc1ccc(O)cc1)C(=O)N[C@@H](CCCCN)C(=O)N[C@H](C(=O)N[C@H](CCSC)C(N)=O)C(C)C` [Peptide 21] (HELM PEPTIDE1{H.M.K.Y.K.V.[dM].[am]}$$$$V2.0), the EC50 in experiment [1] was more than 10000 nM; in experiment [2], less than 10 nM.
As for `CSCC[C@H](NC(=O)[C@H](Cc1c[nH]cn1)NC(C)=O)C(=O)N[C@@H](CCCCN)C(=O)N[C@@H](Cc1ccc(O)cc1)C(=O)N[C@@H](CCCCN)C(=O)N[C@H](C(=O)N[C@H](CCSC)C(N)=O)C(C)C` [Peptide 22] (HELM PEPTIDE1{[ac].H.M.K.Y.K.V.[dM].[am]}$$$$V2.0), the EC50 in experiment [1] was more than 10000 nM; in experiment [2], less than 10 nM.
In the case of `CCCC(=O)N[C@@H](Cc1c[nH]cn1)C(=O)N[C@@H](CCSC)C(=O)N[C@@H](CCCCN)C(=O)N[C@@H](Cc1ccc(O)cc1)C(=O)N[C@@H](CCCCN)C(=O)N[C@H](C(=O)N[C@H](CCSC)C(N)=O)C(C)C` [Peptide 23] (HELM PEPTIDE1{[CCCC(=O)[*:2]].H.M.K.Y.K.V.[dM].[am]}$$$$V2.0), the EC50 is more than 10000 nM in experiment [1] and less than 10 nM in experiment [2].
`CCCCCCCC(=O)N[C@@H](Cc1c[nH]cn1)C(=O)N[C@@H](CCSC)C(=O)N[C@@H](CCCCN)C(=O)N[C@@H](Cc1ccc(O)cc1)C(=O)N[C@@H](CCCCN)C(=O)N[C@H](C(=O)N[C@H](CCSC)C(N)=O)C(C)C` [Peptide 24] (HELM PEPTIDE1{[CCCCCCCC(=O)[*:2]].H.M.K.Y.K.V.[dM].[am]}$$$$V2.0): the EC50 is more than 10000 nM in experiment [1] and less than 10 nM in experiment [2].

As a reminder, the EC50 is the concentration that produces a half-maximal response.
